Laboratory results from patent US9440969B2, “Compounds and methods for kinase modulation, and indications therefor” (PLEXXIKON INC., priority 2009, dated 2016).

Legend:
B-Raf = B-Raf (Homo sapiens, UniProt P15056); experiment: B-Raf kinase activity assay (AlphaScreen, biotin-MEK1 substrate); conditions: 100 μM ATP, 100 nM biotin-MEK1, 45 minutes at room temperature; read-out: Biochemical activity (IC50 μM) B-Raf
Experimental: (§1) Assays for biochemical and cell based activity are known in the art, for example, as described in PCT publication WO 2007/002433, the disclosure of which is hereby incorporated by reference as it relates to such assays. For example, the biochemical activity IC50 values are determined with respect to inhibition of B-Raf kinase activity, c-Raf-1 kinase activity, or B-Raf V600E kinase activity, where inhibition of phosphorylation of a peptide substrate is measured as a function of compound concentration. Compounds to be tested are diluted in dimethyl sulfoxide to a concentration of 0.1 mM. These are serially diluted 15 μL into 30 μL of dimethyl sulfoxide seven times in 96 well plates for a total of 8 dilution points, and for each dilution point 1 μL is added to a well of an assay plate. Plates are prepared such that each well in a 384 well plate contains 1 μL of compound in 10 μL, volume with 0.1 ng Raf enzyme (i.e. any of B-Raf, c-Raf-1 or B-Raf V600E, Upstate Biotechnology or prepared by methods known to one of skill in the art), 50 mM HEPES, pH 7.0, 50 mM NaCl, 2 mM MgCl2, 1 mM MnCl2, 0.01% Tween-20, 1 mM DTT, and 100 nM biotin-MEK1 as substrate. The reaction is started with addition of 10 μL of 200 μM ATP (i.e. final 100 μM ATP). After incubation of the kinase reaction for 45 minutes at room temperature, 5 μL/well of Stop Solution is added (25 mM Hepes pH 7.5, 100 mM EDTA, 0.01% BSA with donor beads (Streptavidin coated beads, Perkin Elmer), acceptor beads (Protein A coated, Perkin Elmer), and anti phosphor MEK1/2 antibody (CellSignal), each at final concentration 10 μg/mL). The plates are incubated for 3 hours at room temperature and read on Envision reader (Perkin Elmer). Phosphorylation of Mek1 results in binding of the anti-phosphor-MEK1/2 antibody and association of the donor and acceptor beads such that signal correlates with kinase activity. The signal vs. compound concentration is used to determine the IC50.

B-Raf V600E = B-Raf V600E (Homo sapiens, UniProt P15056, V600E); experiment: B-Raf V600E kinase activity assay (AlphaScreen, biotin-MEK1 substrate); conditions: 100 μM ATP, 100 nM biotin-MEK1, 45 minutes at room temperature, read-out: Biochemical activity (IC50 μM) V600E
Chain of B-Raf V600E (P15056 whole entry V600E): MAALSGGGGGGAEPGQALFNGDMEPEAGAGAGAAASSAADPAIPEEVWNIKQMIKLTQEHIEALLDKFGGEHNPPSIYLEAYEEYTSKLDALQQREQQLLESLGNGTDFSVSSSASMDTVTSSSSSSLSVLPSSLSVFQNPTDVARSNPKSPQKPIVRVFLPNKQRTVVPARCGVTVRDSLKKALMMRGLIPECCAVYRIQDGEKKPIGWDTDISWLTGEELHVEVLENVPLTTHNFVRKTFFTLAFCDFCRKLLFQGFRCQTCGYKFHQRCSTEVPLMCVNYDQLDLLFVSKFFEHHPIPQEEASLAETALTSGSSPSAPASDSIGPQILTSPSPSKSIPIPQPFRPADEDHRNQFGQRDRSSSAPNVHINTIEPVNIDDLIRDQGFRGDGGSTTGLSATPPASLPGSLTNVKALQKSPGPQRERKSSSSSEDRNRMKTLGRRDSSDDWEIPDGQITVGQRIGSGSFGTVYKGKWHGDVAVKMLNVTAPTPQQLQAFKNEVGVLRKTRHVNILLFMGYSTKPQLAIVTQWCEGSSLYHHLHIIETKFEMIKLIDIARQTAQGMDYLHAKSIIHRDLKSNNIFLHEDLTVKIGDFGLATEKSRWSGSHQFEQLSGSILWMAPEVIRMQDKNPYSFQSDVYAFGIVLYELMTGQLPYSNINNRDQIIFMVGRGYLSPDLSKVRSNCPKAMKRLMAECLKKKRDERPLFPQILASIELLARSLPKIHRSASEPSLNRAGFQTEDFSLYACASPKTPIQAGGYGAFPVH
Experimental: as §1

c-Raf-1 = c-Raf-1 (Homo sapiens, UniProt P04049); experiment: c-Raf-1 kinase activity assay (AlphaScreen, biotin-MEK1 substrate); conditions: 100 μM ATP, 100 nM biotin-MEK1, 45 minutes at room temperature; read-out: Biochemical activity (IC50 μM) c-Raf-1
Chain of c-Raf-1 (P04049 whole entry Y340D/Y341D, form open): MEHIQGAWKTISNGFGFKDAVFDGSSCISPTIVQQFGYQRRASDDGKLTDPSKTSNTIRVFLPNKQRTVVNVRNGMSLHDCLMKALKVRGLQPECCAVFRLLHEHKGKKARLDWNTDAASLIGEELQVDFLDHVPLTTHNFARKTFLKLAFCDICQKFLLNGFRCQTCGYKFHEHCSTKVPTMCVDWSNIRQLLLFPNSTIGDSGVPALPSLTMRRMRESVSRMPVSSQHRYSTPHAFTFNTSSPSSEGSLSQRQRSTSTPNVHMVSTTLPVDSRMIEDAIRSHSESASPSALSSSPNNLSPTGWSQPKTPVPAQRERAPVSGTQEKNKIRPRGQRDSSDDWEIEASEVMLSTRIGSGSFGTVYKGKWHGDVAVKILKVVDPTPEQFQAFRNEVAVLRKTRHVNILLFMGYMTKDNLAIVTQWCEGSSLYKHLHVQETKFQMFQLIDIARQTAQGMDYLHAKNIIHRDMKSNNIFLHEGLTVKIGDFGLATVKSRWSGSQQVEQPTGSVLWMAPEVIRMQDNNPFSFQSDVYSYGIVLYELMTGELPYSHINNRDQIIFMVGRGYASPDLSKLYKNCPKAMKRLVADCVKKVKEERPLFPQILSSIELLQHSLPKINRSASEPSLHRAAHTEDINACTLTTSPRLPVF
Experimental: as §1

[1] = Relative solubility by turbidity in aqueous buffers (pH 1.5, 4.5, 6.8, 7.4); format: physicochemical; conditions: for turbidity threshold (L, M, H) 1.4: pH 1.5 buffer (SGF); for turbidity threshold (L, M, H) 4.5: pH 4.5 buffer (SIF); for turbidity threshold (L, M, H) 6.8: pH 6.8 buffer (SIF); for turbidity threshold (L, M, H) 7.4: pH 7.4 buffer (HEPES)
Experimental: As an indication of relative solubility, the turbidity of compounds in aqueous solutions is assessed. To assess possible compound properties in different physiological compartments, such as stomach, intestine, and blood, a series of aqueous buffers with varying pH is used. Thus each compound is diluted into four different physiologically relevant buffers and solution turbidity is measured by spectrophotometry.
Compounds are dissolved at a concentration of 25 mM in dimethyl sulfoxide, then serially diluted 1:1 into a 96 well plate, diluting 10 times in pure dimethyl sulfoxide, with the final well of each row a dimethyl sulfoxide blank. In an assay plate, 99 μL of appropriate buffer is added to each well, and 1 μL of each sample dilution is added to the buffer, achieving a range of final total concentrations in aqueous solutions having different pH. The buffers used are Simulated Gastric Fluid (SGF-pH 1.5) 0.5M NaCl, pH 1.5; Simulated Intestinal fluid (SIF-pH 4.5 and pH 6.8) 0.05M NaH2PO4, pH 4.5 and 6.8; and Hepes Buffer (HEPES-pH 7.4) 10 mM HEPES, 150 mM NaCl, pH 7.4. Control compounds pyrene, estriol and propranolol HCl are also assessed. Plates are spun and then mixed for 1 minute, and the absorbance is read using a Tecan Safire II to read wavelengths in the visible range (490, 535, and 650 nm) at four locations per well, reflecting the degree of turbidity present. The average optical density for each wavelength in each well is graphed vs. compound concentration, and the concentration at which the curve crosses a threshold O.D. of 0.01 for each wavelength is reported as the endpoint turbidity assay result. The average of the three wavelengths is used to compare turbidity of compounds. Compounds are considered to have low solubility if the threshold concentration is <31.3 μM, moderate solubility if the threshold concentration is 31.3 μM to 250 μM, and high solubility if the threshold concentration is >250 μM.
The following table indicates the relative solubility (L=low, M=moderate, H=high) based on turbidity threshold concentration at each pH for exemplary compounds according to the invention: […]

Chain of B-Raf (P15056 whole entry): as the sequence (P15056 whole entry V600E) above, with E600V counted along it

Structure (SMILES)	IC50 (B-Raf) [µM]	IC50 (B-Raf V600E) [µM]	IC50 (c-Raf-1) [µM]	turbidity threshold (L, M, H) 1.4 [1]	turbidity threshold (L, M, H) 4.5 [1]	turbidity threshold (L, M, H) 6.8 [1]	turbidity threshold (L, M, H) 7.4 [1]
CN(C)c1ccc(-c2cnc3[nH]cc(C(=O)c4c(F)ccc(NS(=O)(=O)c5cc(F)ccc5F)c4F)c3c2)cn1 [P-1409, N-{3-[5-(6-Dimethylamino-pyridin-3-yl)-1H-pyrrolo[2,3-b]pyridine-3-carbonyl]-2,4-difluoro-phenyl}-2,5-difluoro-benzenesulfonamide]	< 0.1	< 0.1	< 0.1	L (low solubility if the threshold concentration is <31.3 μM)	L (low solubility if the threshold concentration is <31.3 μM)	L (low solubility if the threshold concentration is <31.3 μM)	L (low solubility if the threshold concentration is <31.3 μM)
CONC(=O)c1ccc(-c2cnc3[nH]cc(C(=O)c4c(F)ccc(NS(=O)(=O)c5cc(F)ccc5F)c4F)c3c2)cc1 [P-1705, 4-{3-[3-(2,5-Difluoro-benzenesulfonylamino)-2,6-difluoro-benzoyl]-1H-pyrrolo[2,3-b]pyridin-5-yl}-N-methoxy-benzamide]	< 0.1	< 0.1	< 0.1	M (moderate solubility if the threshold concentration is 31.3 μM to 250 μM)	L (low solubility if the threshold concentration is <31.3 μM)	L (low solubility if the threshold concentration is <31.3 μM)	L (low solubility if the threshold concentration is <31.3 μM)
CONC(=O)c1cccc(-c2cnc3[nH]cc(C(=O)c4c(F)ccc(NS(=O)(=O)c5cc(F)ccc5F)c4F)c3c2)c1 [P-1704, 3-{3-[3-(2,5-Difluoro-benzenesulfonylamino)-2,6-difluoro-benzoyl]-1H-pyrrolo[2,3-b]pyridin-5-yl}-N-methoxy-benzamide]	< 0.1	< 0.1	< 0.1	L (low solubility if the threshold concentration is <31.3 μM)	L (low solubility if the threshold concentration is <31.3 μM)	L (low solubility if the threshold concentration is <31.3 μM)	L (low solubility if the threshold concentration is <31.3 μM)

The next lines start with results.

IC50 (B-Raf) [µM]	IC50 (B-Raf V600E) [µM]	IC50 (c-Raf-1) [µM]	Structure (SMILES)	turbidity threshold (L, M, H) 1.4 [1]	turbidity threshold (L, M, H) 4.5 [1]	turbidity threshold (L, M, H) 6.8 [1]	turbidity threshold (L, M, H) 7.4 [1]
< 0.1	< 0.1	< 0.1	Cn1ccc(-c2cnc3[nH]cc(C(=O)c4c(F)ccc(NS(=O)(=O)c5cc(F)ccc5F)c4F)c3c2)n1 [P-1011, N-{2,4-Difluoro-3-[5-(1-methyl-1H-pyrazol-3-yl)-1H-pyrrolo[2,3-b]pyridine-3-carbonyl]-phenyl}-2,5-difluoro-benzenesulfonamide]	L (low solubility if the threshold concentration is <31.3 μM)	L (low solubility if the threshold concentration is <31.3 μM)	M (moderate solubility if the threshold concentration is 31.3 μM to 250 μM)	M (moderate solubility if the threshold concentration is 31.3 μM to 250 μM)
< 0.1	< 0.1	< 0.1	Cc1cc(-c2cnc3[nH]cc(C(=O)c4c(F)ccc(NS(=O)(=O)c5cc(F)ccc5F)c4F)c3c2)n(C)n1 [P-1010, N-{3-[5-(2,5-Dimethyl-2H-pyrazol-3-yl)-1H-pyrrolo[2,3-b]pyridine-3-carbonyl]-2,4-difluoro-phenyl}-2,5-difluoro-benzenesulfonamide]	M (moderate solubility if the threshold concentration is 31.3 μM to 250 μM)	L (low solubility if the threshold concentration is <31.3 μM)	L (low solubility if the threshold concentration is <31.3 μM)	M (moderate solubility if the threshold concentration is 31.3 μM to 250 μM)
< 0.1	< 0.1	< 0.1	CN(C)c1ncc(-c2cnc3[nH]cc(C(=O)c4c(F)ccc(NS(=O)(=O)c5cc(F)ccc5F)c4F)c3c2)cn1 [P-1502, N-{3-[5-(2-Dimethylamino-pyrimidin-5-yl)-1H-pyrrolo[2,3-b]pyridine-3-carbonyl]-2,4-difluoro-phenyl}-2,5-difluoro-benzenesulfonamide]	L (low solubility if the threshold concentration is <31.3 μM)	L (low solubility if the threshold concentration is <31.3 μM)	L (low solubility if the threshold concentration is <31.3 μM)	L (low solubility if the threshold concentration is <31.3 μM)
< 0.1	< 0.1	< 0.1	COc1ncc(-c2cnc3[nH]cc(C(=O)c4c(F)ccc(NS(=O)(=O)c5cc(F)ccc5F)c4F)c3c2)c(OC)n1 [P-1501, N-{3-[5-(2,4-Dimethoxy-pyrimidin-5-yl)-1H-pyrrolo[2,3-b]pyridine-3-carbonyl]-2,4-difluoro-phenyl}-2,5-difluoro-benzenesulfonamide]	L (low solubility if the threshold concentration is <31.3 μM)	L (low solubility if the threshold concentration is <31.3 μM)	L (low solubility if the threshold concentration is <31.3 μM)	L (low solubility if the threshold concentration is <31.3 μM)
